The record followed here is ChEMBL document CHEMBL5154641, “Targeting transthyretin in Alzheimer's disease: Drug discovery of small-molecule chaperones as disease-modifying drug candidates for Alzheimer's disease” (Eur J Med Chem, 2021).

Activity calls are given as the source filed them. The calls are words filed in the database; no cut-off is given here.

For test [1], the species on record is Homo sapiens. The test can be described thus: Binding affinity to wild type TTR/Amyloid beta (1 to 40 residues) binary complex (unknown origin) assessed as change in enthalpy binary by isothermal titration calorimetry. (ITC needs no label: the signal is the heat of the interaction.)
Test [2] concerns SH-SY5Y. The test can be described thus: Neuroprotective activity against amyloid beta (1 to 42 residues)-induced cell injury in human SH-SY5Y cells assessed as reduction in caspase 3 level. The class given is functional, cell-based.
The species named for test [3] is Homo sapiens. The test can be described thus: Binding affinity to wild type TTR/Amyloid beta (1 to 40 residues) binary complex (unknown origin) assessed as change in entropy for binary complex by isothermal titration calorimetry.
For test [4], the species on record is Homo sapiens. The experiment in a line: Binding affinity to wild type TTR/Amyloid beta (1 to 40 residues) binary complex (unknown origin) assessed as Gibbs free energy change for binary complex by isothermal titration calorimetry.
Test [5] deals with Transthyretin (Homo sapiens) (UniProt P02766). The experiment in a line: Displacement of [125I]-T4 from human recombinant TTR expressed in Escherichia coli BL21(DE3) Star by gamma spectrometric analysis. In general terms: Loss of bound radioactivity is the signal in a displacement assay; it reports binding, not function.
Test [6] can be described thus: Binding affinity to wild type TTR/Amyloid beta (1 to 40 residues) binary complex (unknown origin) assessed as complex dissociation constant by isothermal titration calorimetry. The arrangement: species or system Homo sapiens.

With `O=C(O)c1cc(-c2ccc(F)cc2F)cc(I)c1O`, the deltaH in test [1] was -1.54 kcal/mol. Also, the result in test [2] and in test [5] was Active. In test [3], the -TdeltaS is -6.13 kcal/mol. Also, the deltaG in test [4] was -7.67 kcal/mol.

As to `C=Cc1cc2oc(-c3ccc(O)c(F)c3)nc2cc1O`, the outcome in test [5] was Active.

On to `CC/C(=C(/CC)c1ccc(O)cc1)c1ccc(O)cc1`, for which the outcome in test [5] was Active.

Regarding `CCCCN(CCCC)C[C@H](O)c1cc(Cl)cc2c1-c1ccc(Cl)cc1/C2=C/c1ccc(Cl)cc1`, the result in test [5] was Active.

On to `CCc1ccc(CCOc2ccc(CC3SC(=O)NC3=O)cc2)nc1` (stereo not drawn), for which, in test [5], the result was Active.

On to `COc1ccccc1Oc1ccc(N(Cc2cccnc2)S(=O)(=O)CC(F)(F)F)cc1`, for which the result in test [5] was Active.

In the case of `Cc1ccc(C(=O)c2cc(O)c(O)c([N+](=O)[O-])c2)cc1`, in test [5], the result was Active.

Turning to `O=C(O)CCNC(=O)CCNC(=O)c1cc(-c2ccc(F)cc2F)cc(I)c1O`, the outcome in test [5] was Active.

For `O=C(O)c1cc(-c2ccc3ccccc3c2)cc(I)c1O`, the outcome in test [5] was Active.

With `O=C(O)c1cc(/N=N/c2cccc([N+](=O)[O-])c2)cc(I)c1O`, in test [5], the outcome was Active.

With `O=C(O)c1cc(/N=N/c2cccc([N+](=O)[O-])c2)ccc1O`, the result in test [5] was Active.

On to `O=C(O)c1ccc2nc(-c3cc(Cl)cc(Cl)c3)oc2c1`, for which, in test [5], the outcome was Active.

Take `Oc1c(I)cc(Cl)c2cccnc12`: the outcome in test [5] was Active.

For the molecule `Oc1c(I)cc(I)cc1I`, the result in test [5] was Active.

For the molecule `O=C(O)c1ccccc1Nc1cccc(C(F)(F)F)c1` [FLUFENAMIC ACID], in test [1], the deltaH is -3.66 kcal/mol. Besides, the Kd (usually the equilibrium constant for the complex coming apart) in test [6] was 2.34 µM. Also, the outcome in test [2] was Active. The -TdeltaS in test [3] is 4.62 kcal/mol. In addition, in test [4], the deltaG was -8.28 kcal/mol.

Take `O=c1cc(-c2ccc(O)c(O)c2)oc2cc(O)cc(O)c12` [LUTEOLIN]: the deltaH in test [1] was -0.53 kcal/mol. Besides, the Kd in test [6] is 1.52 µM. In addition, the outcome in test [2] and in test [5] was Active. In addition, in test [3], the -TdeltaS stood at 7.3 kcal/mol. The deltaG in test [4] was -7.93 kcal/mol.

On to `O=C(O)c1cc(/N=N/c2ccc(O)c(C(=O)O)c2)ccc1O` [OLSALAZINE], for which, in test [1], the deltaH is -8.72 kcal/mol. The Kd in test [6] stood at 0.81 µM. Further, the result in test [2] was Active. Moreover, the -TdeltaS in test [3] was 0.02 kcal/mol. Further, in test [4], the deltaG was -8.7 kcal/mol.

On to `CC1=C(CC(=O)O)c2cc(F)ccc2/C1=C\c1ccc([S+](C)[O-])cc1` (stereo not drawn) [SULINDAC], for which, in test [1], the deltaH was -3.23 kcal/mol. In test [6], the Kd worked out at 3.42 µM. Also, the -TdeltaS in test [3] is -4.92 kcal/mol. For the same molecule, the deltaG in test [4] is -8.15 kcal/mol.
